Experimental data as given in patent US9895328B2, “Calcium formate as a supplement to prevent neural tube defects” (BOARD OF REGENTS, THE UNIVERSITY OF TEXAS SYSTEM, priority 2013, dated 2018).
Like-named read-outs stand apart in the source and are kept apart here.

Columns and labels:
Mthfd1l^z/z embryos [1] = conditions: for Crown-rump length: E15.5
Source text: Mice. All protocols used within this study were approved by the Institutional Animal Care and Use Committee of The University of Texas at Austin and conform to the National Institutes of Health Guide for the Care and Use of Laboratory Animals. All mice were maintained on a C57Bl/6 genetic background. Mice harboring a floxed conditional knockout cassette between exons 4 and 6 of Mthfd1l were obtained from the Wellcome Trust Sanger Institute (EUCOMM ID 37226). Mice carrying the floxed Mthfd1l allele were mated to mice expressing Cre recombinase under control of the E2a promoter (E2a-Cre) (Lakso M, et al. (1996) Proc. Natl. Acad. Sci. U.S.A 93:5860-5865) to generate heterozygous Mthfd1l^z/+ embryos lacking exon 5 and the neomycin resistance cassette (FIG. 2A). All mice were given ad libitum access to water and standard mouse chow (LabDiet 5K67).
Maternal Supplementation with Calcium Formate. Mthfd1l^z/+ matings were set up in a cage equipped with a water bottle containing 0.0096M, 0.019M, 0.056M or 0.096M calcium formate. The females had access to the supplemented water at least one day before observation of the plug. These concentrations were calculated to deliver 250, 500, 1500 or 2500 mg calcium formate/kg/day, respectively, based on an average water intake of 5 mL per day for a 25 g C57BL/6 mouse (Green EL ed (1966) Biology of the Laboratory Mouse (Dover Publications, Inc., New York), 2nd Ed, p 706). The effect of formate supplementation was analyzed by a two-tailed T-test for crown-rump length
Pregnant dams were administered calculated doses of 250-2500 mg/kg/day.

Amt null embryos = conditions: maternal supplementation; cited from earlier work
Mthfd1l^z/z embryos [2] = assay: Maternal supplementation with sodium formate, Mthfd1l^z/+ matings; type: in vivo, mouse
Method: Maternal Supplementation with Sodium Formate.
Because deletion of Mthfd1l is expected to result in loss of mitochondrial formate production, experiments were conducted to determine if maternal formate supplementation would improve development of Mthfd1l^z/z embryos. Pregnant dams were given ad libitum access to water containing sodium formate to achieve a calculated dose of 5000 or 7500 mg sodium formate/kg/day; controls were given water without formate. […] When dams were supplemented with 5000 mg/kg/day sodium formate, 4 Mthfd1l^+/+, 14 Mthfd1l^z/+, and 8 Mthfd1l^z/z embryos were obtained from 3 litters between E15.5-18.5. […] Next, the morphology of E10.5-E15.5 embryos from dams supplemented with 7500 mg/kg/day sodium formate was examined, obtaining 10 Mthfd1l^+/+ embryos, 31 Mthfd1l^z/+ embryos and 14 Mthfd1l^z/z embryos from 6 litters, again conforming to the expected Mendelian ratio (p=0.48). […] Importantly, 6 of the 14 Mthfd1l^z/z embryos were dissected from dams at E13.5 or E15.5, whereas no surviving Mthfd1l^z/z embryos were observed after E12.5 from unsupplemented dams. While supplemented versus non-supplemented embryos were not compared after E12.5 due to lethality of the unsupplemented embryos, formate supplementation partially rescued the growth defect in Mthfd1l^z/z embryos (FIGS. 5A, 5B). […] Supplementation had no significant effect on crown-rump length of wild-type embryos (5.9±0.2 mm).

[3] = 250 mg/kg, of 6 Mthfd1l^z/z embryos
[4] = 250 mg/kg, of 6 Mthfd1l^z/z embryos (Table 2)
[5] = 250 mg/kg, of 6 Mthfd1l^z/z embryos (Table 3)
[6] = 500 mg/kg, of 11 Mthfd1l^z/z embryos
[7] = 500 mg/kg, of 11 Mthfd1l^z/z embryos (Table 2)
[8] = 500 mg/kg, of 11 Mthfd1l^z/z embryos (Table 3)
[9] = 1500 mg/kg, Mthfd1l^z/z embryos
[10] = 1500 mg/kg, of 13 Mthfd1l^z/z embryos
[11] = 1500 mg/kg, of 13 Mthfd1l^z/z embryos (Table 2)
[12] = 1500 mg/kg, of 13 Mthfd1l^z/z embryos (Table 3)
[13] = 2500 mg/kg, Mthfd1l^z/z embryos
[14] = 2500 mg/kg, of 15 Mthfd1l^z/z embryos
[15] = 2500 mg/kg, of 15 Mthfd1l^z/z embryos (Table 2)
[16] = 2500 mg/kg, of 15 Mthfd1l^z/z embryos (Table 3)
[17] = 3500 mg/kg, Mthfd1l^z/z embryos
[18] = 3500 mg/kg, of 10 Mthfd1l^z/z embryos
[19] = 3500 mg/kg, of 10 Mthfd1l^z/z embryos (Table 2)
[20] = 3500 mg/kg, of 10 Mthfd1l^z/z embryos (Table 3)
[21] = dams 5000 mg/kg/day sodium formate in water, 3 litters, E15.5-18.5, distribution vs Mendelian p=0.50
[22] = dams 7500 mg/kg/day sodium formate, 6 litters, E10.5-E15.5, vs Mendelian p=0.48
[23] = embryos lacking Mthfd1l, maternal supplementation

## O=C[O-].O=C[O-].[Ca+2] [calcium formate]
Mthfd1l^z/z embryos [1]; 250 mg/kg, Mthfd1l^z/z embryos
  NTD, phenotype as a percentage: 0.1667 percentage
  no defect observed, phenotype as a percentage: 0 percentage
  orofacial defect and NTD, phenotype as a percentage: 0.1667 percentage
  orofacial defect, phenotype as a percentage: 0.6667 percentage
Mthfd1l^z/z embryos [1]; [3]
  no defect observed (number of embryos): 0
  orofacial defect and NTD (number of embryos): 1
Mthfd1l^z/z embryos [1]; [4]
  number with NTD: 2
  number with facial defect: 4
Mthfd1l^z/z embryos [1]; [5]
  NTD (number of embryos): 1
  orofacial defect (number of embryos): 4
Mthfd1l^z/z embryos [1]; 500 mg/kg, Mthfd1l^z/z embryos
  NTD, phenotype as a percentage: 0 percentage
  no defect observed, phenotype as a percentage: 0.2727 percentage
  orofacial defect and NTD, phenotype as a percentage: 0 percentage
  orofacial defect, phenotype as a percentage: 0.7273 percentage
Mthfd1l^z/z embryos [1]; [6]
  no defect observed (number of embryos): 3
  orofacial defect and NTD (number of embryos): 0
Mthfd1l^z/z embryos [1]; [7]
  number with NTD: 0
  number with facial defect: 8
Mthfd1l^z/z embryos [1]; [8]
  NTD (number of embryos): 0
  orofacial defect (number of embryos): 8
Mthfd1l^z/z embryos [1]; [9]
  NTD, phenotype as a percentage: 0.07692 percentage
  no defect observed, phenotype as a percentage: 0.6154 percentage
  orofacial defect and NTD, phenotype as a percentage: 0 percentage
  orofacial defect, phenotype as a percentage: 0.3077 percentage
Mthfd1l^z/z embryos [1]; [10]
  no defect observed (number of embryos): 8
  orofacial defect and NTD (number of embryos): 0
Mthfd1l^z/z embryos [1]; [11]
  number with NTD: 1
  number with facial defect: 4
Mthfd1l^z/z embryos [1]; [12]
  NTD (number of embryos): 1
  orofacial defect (number of embryos): 4
Mthfd1l^z/z embryos [1]; [13]
  NTD, phenotype as a percentage: 0.3333 percentage
  no defect observed, phenotype as a percentage: 0.6667 percentage
  orofacial defect and NTD, phenotype as a percentage: 0 percentage
  orofacial defect, phenotype as a percentage: 0 percentage
Mthfd1l^z/z embryos [1]; [14]
  no defect observed (number of embryos): 10
  orofacial defect and NTD (number of embryos): 0
Mthfd1l^z/z embryos [1]; [15]
  number with NTD: 5
  number with facial defect: 0
Mthfd1l^z/z embryos [1]; [16]
  NTD (number of embryos): 5
  orofacial defect (number of embryos): 0
Mthfd1l^z/z embryos [1]; [17]
  NTD, phenotype as a percentage: 0.1 percentage
  no defect observed, phenotype as a percentage: 0.6 percentage
  orofacial defect and NTD, phenotype as a percentage: 0 percentage
  orofacial defect, phenotype as a percentage: 0.3 percentage
Mthfd1l^z/z embryos [1]; [18]
  no defect observed (number of embryos): 6
  orofacial defect and NTD (number of embryos): 0
Mthfd1l^z/z embryos [1]; [19]
  number with NTD: 1
  number with facial defect: 3
Mthfd1l^z/z embryos [1]; [20]
  NTD (number of embryos): 1
  orofacial defect (number of embryos): 3
Mthfd1l^z/z embryos [1]; 250-2500 mg/kg/day, embryos dissected at E15.5
  growth of Mthfd1l^z/z embryos with increasing maternal intake: dose-response effect
Mthfd1l^z/z embryos [1]; Mthfd1l^+/+ embryos, 250 mg/kg calcium formate to dams
  Crown-rump length: 1.39 + 0.1 cm
Mthfd1l^z/z embryos [1]; Mthfd1l^+/+ embryos, 500 mg/kg calcium formate to dams
  Crown-rump length: 1.32 + 0.17 cm
Mthfd1l^z/z embryos [1]; Mthfd1l^+/+ embryos, 1500 mg/kg calcium formate to dams
  Crown-rump length: 1.46 + 0.2 cm
Mthfd1l^z/z embryos [1]; Mthfd1l^+/+ embryos, 2500 mg/kg calcium formate to dams
  Crown-rump length: 1.43 + 0.07 cm
Mthfd1l^z/z embryos [1]; Mthfd1l^+/+ embryos, 3500 mg/kg calcium formate to dams
  Crown-rump length: 1.34 + 0.2 cm
Mthfd1l^z/z embryos [1]; Mthfd1l^z/+ embryos, 250 mg/kg calcium formate to dams
  Crown-rump length: 1.38 + 0.1 cm
Mthfd1l^z/z embryos [1]; Mthfd1l^z/+ embryos, 500 mg/kg calcium formate to dams
  Crown-rump length: 1.36 + 0.21 cm
Mthfd1l^z/z embryos [1]; Mthfd1l^z/+ embryos, 1500 mg/kg calcium formate to dams
  Crown-rump length: 1.46 + 0.1 cm
Mthfd1l^z/z embryos [1]; Mthfd1l^z/+ embryos, 2500 mg/kg calcium formate to dams
  Crown-rump length: 1.39 + 0.09 cm
Mthfd1l^z/z embryos [1]; Mthfd1l^z/+ embryos, 3500 mg/kg calcium formate to dams
  Crown-rump length: 1.33 + 0.1 cm
Mthfd1l^z/z embryos [1]; Mthfd1l^z/z embryos, 250 mg/kg calcium formate to dams
  Crown-rump length: 1.05 ± 0.1 cm
Mthfd1l^z/z embryos [1]; Mthfd1l^z/z embryos, 500 mg/kg calcium formate to dams
  Crown-rump length: 1.03 ± 0.06 cm
Mthfd1l^z/z embryos [1]; Mthfd1l^z/z embryos, 1500 mg/kg calcium formate to dams
  Crown-rump length: 1.17 ± 0.13 cm
Mthfd1l^z/z embryos [1]; Mthfd1l^z/z embryos, 2500 mg/kg calcium formate to dams
  Crown-rump length: 1.20 ± 0.04 cm
Mthfd1l^z/z embryos [1]; Mthfd1l^z/z embryos, 3500 mg/kg calcium formate to dams
  Crown-rump length: 1.1 ± 0.2 cm
Mthfd1l^z/z embryos [1]; Table 3 and FIG. 6, mouse model
  NTD and orofacial defect phenotypes: improves NTD and orofacial defect phenotypes in a dose-dependent manner

## CSCC[C@H](N)C(=O)O [methionine]
Amt null embryos
  neurulation in Amt null embryos: significantly improves neurulation

## O=C[O-].[Na+] [sodium formate]
Mthfd1l^z/z embryos [2]; 7500 mg sodium formate/kg/day, Mthfd1l^z/z embryos at E11.5 vs unsupplemented dams
  growth of embryos (words, FIG. 5): improved growth
Mthfd1l^z/z embryos [2]; 7500 mg/kg/day sodium formate, of 14 Mthfd1l^z/z embryos
  number of Mthfd1l^z/z embryos with exencephaly: 3
Mthfd1l^z/z embryos [2]; 7500 mg/kg/day sodium formate, of 14 Mthfd1l^z/z embryos, none survive after E12.5 unsupplemented
  number of Mthfd1l^z/z embryos dissected at E13.5 or E15.5 (survival past E12.5): 6
Mthfd1l^z/z embryos [2]; 7500 mg/kg/day sodium formate, of 14 Mthfd1l^z/z embryos, p=0.028 vs unsupplemented nulls
  number of Mthfd1l^z/z embryos with normal neural tube closure: 11
Mthfd1l^z/z embryos [2]; [21]
  number of Mthfd1l^+/+ embryos obtained: 4
  number of Mthfd1l^z/+ embryos obtained: 14
Mthfd1l^z/z embryos [2]; dams 5000 mg/kg/day sodium formate in water, 3 litters, E15.5-18.5, distribution vs Mendelian p=0.50, 0 from unsupplemented dams
  number of Mthfd1l^z/z embryos obtained: 8
Mthfd1l^z/z embryos [2]; [22]
  number of Mthfd1l^+/+ embryos obtained: 10
  number of Mthfd1l^z/+ embryos obtained: 31
  number of Mthfd1l^z/z embryos obtained: 14
Mthfd1l^z/z embryos [2]; [23]
  growth defect: partially rescue the growth defect
  incidence of NTDs: decrease the incidence of NTDs
Mthfd1l^z/z embryos [2]; formate supplemented Mthfd1l^z/z E11.5 embryos, p<0.01 vs unsupplemented (3.6±0.3)
  Crown-rump length: 5.0±0.1 mm
Mthfd1l^z/z embryos [2]; wild-type embryos, supplementation had no significant effect
  Crown-rump length: 5.9±0.2 mm
